# Source: patent US4927658A, “Tris-hydroxymethyl alkane esters as low calorie fat mimetics” (Nabisco Brands, Inc., priority 1989, dated 1990)
# Key:
# [1] = rat, in vivo; cited from earlier work
# [2] = tested on: porcine pancreatic lipase; assay: in vitro digestibility using pancreatic lipase; type: in vitro ADME; conditions: 37° C., pH 7.1
# Experimental: This example outlines the procedure for estimating the in vitro digestibility of the synthetic fat mimetics of this invention using pancreatic lipase.
# 1. Buffer: A pH 7.1 phosphate buffer is prepared by dissolving 6.8 g. KH2 PO4 in 1 L. of millipore filtered water (to yield 0.05M phosphate). Fifty mg. Ca(NO3)2 and 5.0 g. cholic acid (Na salt, an ox bile isolate from Sigma) are added to give 300 microM Ca^++ and 0.5% cholic acid in 0.05M phosphate. The pH is adjusted to approximately 7.1 with solid NaOH. Several drops of Baker "Resi-analyzed" toluene are added to prevent bacterial growth during storage at 3°-5° C.
# 2. Lipase: About 15 mg./mL commercial porcine pancreatic lipase from U.S. Biochemical Corporation is dissolved in buffer.
# 3. Substrates and Standards: A 1.0 mL volumetric flask is charged with an amount of lipid substrate (test substance or standard) calculated to give a concentration of 200 nanomoles per microliter in Baker "Resi-analyzed" toluene. (The proper concentration may be approximated by […] the molecular weight of the lipid in question, dividing by 10, and diluting to the mark; this yields about 200 nanomoles per microliter.) This preparation affords the substrate to be used in the hydrolysis reactions. […]
# [3] = tested on: pancreatic lipase; conditions: Minich, col. 4, lines 62-64; cited from earlier work
# [4] = in vivo animal feeding study for caloric availability; set-up: species or system male Sprague-Dawley rats; conditions: rats, diet of 50% fort and 21% test compound, 14 days
# Source text: This example illustrates how the novel fat mimetics of this invention are screened for caloric availability by a carefully controlled in vivo animal feeding study.
# An experimental relationship between total calories ingested and animal body weight gain is established by monitoring the body weight gain associated with consumption of a nutritionally balanced diet containing varying concentrations of a reference substance such as corn oil which has a known caloric availability. Correlations between total calories ingested and body weight gain are excellent (r=0.99).
# Caloric availability of an unknown substance is evaluated by substituting a specific weight of the unknown substance for the reference substance and observing the body weight gain. The gain in body weight is equated to a total number of calories using the correlation previously established for the reference data. The estimated number of calories ingested are divided by the weight of unknown substance to give the apparent calories per gram for the unknown substance. Generally speaking, in these bioavailability studies, the degree of perianal pelt soiling correlates with reduced bioavailability.
# The test animals are six-week-old male Sprague-Dawley rats obtained from the Portage, Mich. facility of the Charles River Laboratories, Inc. After acclamation for 15 days, the test duration is 14 days. […]
molecule,measurement,setting,value
corn oil,caloric availability of reference,[1],9.0 calories/gram
CCCCCCCC/C=C\CCCCCCCC(=O)OCC(COC(=O)CCCCCCC/C=C\CCCCCCCC)OC(=O)CCCCCCC/C=C\CCCCCCCC [triolein],hydrolysis by pancreatic lipase,"[2]; triglyceride control, in 10 minutes",substantially hydrolyzed
CCCCCCCC(=O)OCC(COC(=O)CCCCCCC)(COC(=O)CCCCCCC)COC(=O)CCCCCCC [pentaerythritol tetracaprylate],hydrolysis by pancreatic lipase,[3],"not attacked, hydrolyzed"
"CCCCCCCC/C=C\CCCCCCCC(=O)OCC(C)(COC(=O)CCCCCCC/C=C\CCCCCCCC)COC(=O)CCCCCCC/C=C\CCCCCCCC [Example 1, 1,1,1-Tris hydroxymethylethane trioleate]",hydrolysis by pancreatic lipase,[2]; after three hours contact with pancreatic lipase,limited hydrolysis
same,caloric availability upon being metabolized,[4],about 3.3 kcal/gram
